Experimental findings from patent US20260355318A1, “MOLECULAR MACHINES FOR TREATMENT OF CANCER, FUNGAL INFECTIONS, OR BACTERIAL INFECTIONS” (priority 2022, published 2026) are described below.

One series has as its system E. coli. As to the kind of experiment: Protein carbonyl levels, E. coli. It counts as cell-based, Escherichia coli. As to conditions: 1×MIC MM 1.
Series [1] concerns mature C. albicans biofilms. As to the kind of experiment: Biofilm viability (XTT assay). It counts as cell-based, Candida albicans. To be noted: 2×, 4×MIC, vs DMSO, MMs with 87.6 J cm^−2 405-nm light. The protocol:
The antibiofilm activity of MMs was investigated using 96-well microtiter plates with flat-bottom wells as a closed static biofilm reactor. This setup is reliable, inexpensive, easy to use and obtain, and requires no additional equipment (Pierce et al., 2010). Two parameters were used to evaluate antibiofilm activity: biofilm biomass and biofilm viability. Biofilm biomass was determined using the crystal violet method (Martins et al, 2010), a simple, inexpensive, and readily accessible method for determining biofilm biomass. However, because crystal violet binds both live and dead cells as well as extracellular polymeric substances, it cannot be used alone to reliably assess antibiofilm activity. To overcome this limitation, the XTT assay was used to evaluate biofilm viability (Nett et al., 2011). […] The resulting formazan can be easily detected by measuring the absorbance at 490 nm, which is proportional to the number of living cells, providing a reliable quantitative measurement of metabolically active cells in biofilms (Taff et al., 2012). […]
Biofilm viability was determined using an XTT cell viability assay kit (Biotium, Hayward, CA, USA) per the manufacturer's instructions. […] Normalized absorbance values were obtained by subtracting the background from the signal.
Background: Formazan colour is commonly taken as a measure of viable cells.

The subject of another series is B. megaterium. As to the kind of experiment: MIC, B. megaterium. Type of series: cell-based, Bacillus megaterium. As to conditions: Priestia megaterium, 405 nm light. The protocol: The appropriate volume of an MM stock at 8 mM necessary to achieve a concentration ranging from 0.3125 to 40 μM was pipetted into a 2 mL microcentrifuge tube to which 1 mL of cell suspension prepared as previously described was added. Corresponding negative controls (DMSO only) were prepared in the same way. The mixture was gently mixed by pipetting and incubated in the dark at 30 or 37 ° C, depending on the strain, for 30 min with agitation (220 rpm). Afterward, MM- or DMSO-treated cells were dispensed in one well of a 24-well plate positioned in the center of the light beam (405 nm LED Light, Prizmatix, UHP—F-5-405) placed at the appropriate distance necessary to achieve the desired light intensity of 304 mW cm-2, 146 mW cm2 or 87 mW cm2, as measured with a handheld digital power meter console coupled to an S415C thermal power sensor head (Thorlabs, Newton, MA, USA). The temperature during irradiation was monitored using a thermocouple probe (Model SC-TT-K-30-36-PP; Omega Engineering, Inc., Stanford, CT, USA). Samples were agitated during irradiation. Dark controls were prepared as previously described except that no irradiation was provided. […]

A further series concerns E. coli transcripts. In words: RNAseq of MM 1-treated E. coli. Type of series: cell-based, Escherichia coli. As for the experimental part:
Three independent, well-isolated colonies of E. coli were cultured to mid-log phase in MHB media. Cells were collected and resuspended in PBS (1×) to an OD600 of ≈0.05. […] Cells were then irradiated for 5 min at 146 mW cm^−2 (43.8 J cm^−2). Bacterial cells were collected onto a 0.2 μm PES filter by low vacuum filtration. Two volumes of RNAprotect (Qiagen, Valencia, CA) were added to the cells, and the samples were then centrifuged at 5000 g for 25 min at 4 ° C to pellet cells. RNA was isolated using the RNeasy Mini Kit (Qiagen, Valencia, CA) per the manufacturer's instructions. RNA sequencing (RNAseq) and data analysis were performed by DNA Link Inc. (Seoul, Republic of Korea). RNA-Seq libraries were constructed by using TruSeq Stranded Total RNA with Ribo-Zero Plus rRNA Depletion Kit and sequenced on the Illumina NovaSeq6000 platform (Illumina, San Diego, CA) in the 100 nt, paired-end configuration. From each sample, an average of 70 million reads was obtained. For gene expression analysis, reads were trimmed with cutadapt (Magoc et al., 2013) and aligned to the reference genome of Escherichia coli str. K-12 substr. MG1655 (NC_000913) using EDGE-pro pipeline with default setting. Differential expression analysis was performed with DESeq2 in Bioconductor (Love et al., 2014). Gene annotation was performed using an in-house script based on NCBI reference annotations.

For the next series, the system named is C. albicans. As to the kind of experiment: Lipid peroxidation (TBARS, MDA). It counts as cell-based, Candida albicans. As to conditions: 2×MIC. The protocol: Superoxide dismutase (SOD) activity was determined using a Superoxide Dismutase Assay Kit (Caymanchem, MI, USA) per the distributor's instructions. Lipid peroxidation was determined using a TBARS assay kit (TCA method) (Caymanchem, MI, USA) per the distributor's instructions. SOD activity and MDA levels were normalized by protein content determined by the Pierce assay (Pierce™ BCA Protein Assay Kit, Thermo Fisher Scientific, MA, USA).

The structures appear in SMILES notation.

Broadly, the MIC is the smallest concentration in the dilution series that meets the test's criterion for growth inhibition. Turning to `C[C@@H]1Cc2ccc3ccccc3c2/C1=C1\c2ccccc2Sc2cc(NCCN(C)C)ccc21` [MM 1, N^1N^1-dimethyl-N^2-(9-(2-methyl-2,3-dihydro-1H-cyclopenta[a]naphthalen-1-ylidene)-9H-thioxanthen-3-yl) ethane-1,2-diamine], in the series with E. coli, the protein carbonyl levels entry is recorded as “not significantly changed”. Moreover, the “reduction of biofilm viability” value in series [1] is given as “up to 96%”. In the series on B. megaterium, the MIC came out at 0.078 µM. Also, the “transcripts significantly more abundant in MM-treated samples” value in the series with E. coli transcripts (0.5×MIC) is 1362 transcripts. For the same compound, in the series with E. coli transcripts (0.5×MIC, p<0.05), the “transcripts with significantly different levels vs DMSO” value came out at 2694 transcripts. Further, the “transcripts significantly more abundant in DMSO controls” value with E. coli transcripts (MM 1 0.5×MIC versus DMSO) was determined as 1332 transcripts. The “maximum difference in transcript abundance between treatments” value in the series on E. coli transcripts (MM 1 versus DMSO) is reported as at most 5 fold. The “Transcript Fold Change, argC” value with E. coli transcripts (gene argC, p<0.05, 5 min) is 2.0. For the same compound, the “Transcript Fold Change, argF” value in the series on E. coli transcripts (gene argF, p<0.05, 5 min) stood at 2.2. The “Transcript Fold Change, argI” value in the series with E. coli transcripts (gene argI, p<0.05, 5 min) is recorded as 2.8. The “Transcript Fold Change, artJ” value in the series with E. coli transcripts (gene artJ, p<0.05, 5 min) stood at 2.5. In addition, the “Transcript Fold Change, asr” value in the series with E. coli transcripts (gene asr, p<0.05, 5 min) came out at 2.2. Further, the “Transcript Fold Change, bfd” value in the series on E. coli transcripts (gene bfd, p<0.05, 5 min) is listed as 2.0. The “Transcript Fold Change, cdh” value in the series on E. coli transcripts (gene cdh, p<0.05, 5 min) was 2.5. For the same compound, in the series on E. coli transcripts (gene prpB, p<0.05, 5 min), the “Transcript Fold Change, prpB” value worked out at 5.5. The “Transcript Fold Change, prpC” value in the series with E. coli transcripts (gene prpC, p<0.05, 5 min) was 5.0. The “Transcript Fold Change, tauA” value with E. coli transcripts (gene tauA, p<0.05, 5 min) was found to be 2.5. For the same compound, the “Transcript Fold Change, tynA” value in the series on E. coli transcripts (gene tynA, p<0.05, 5 min) stood at 2.6. Besides, the “Transcript Fold Change, yiaW” value with E. coli transcripts (gene yiaW, p<0.05, 5 min) was determined as 2.2. The “Transcript Fold Change, ymdF” value with E. coli transcripts (gene ymdF, p<0.05, 5 min) was determined as 2.4. Also, in the series on E. coli transcripts (gene ymgC, p<0.05, 5 min), the “Transcript Fold Change, ymgC” value is 2.3.

Regarding `C[C@@H]1Cc2ccc3ccccc3c2/C1=C1\c2ccccc2Sc2cc(NCCN)ccc21` (racemic) [MM 6, N^1-(9-(2-methyl-2,3-dihydro-1H-cyclopenta[a]naphthalen-1-ylidene)-9H-thioxanthen-3-yl)ethane-1,2-diamine], in the series with C. albicans, the “lipid peroxidation product levels” value is recorded as “increased levels of the lipid peroxidation product malonaldehyde”.
